{"source": "patent US9439430B2", "about": "“Method of controlling resistant harmful plants” (priority 2012, dated 2016)", "key": {"[1]": {"tested_on": "KCHSC", "test": "Greenhouse test, pre-emergence (PE) soil application", "assay_type": "in vivo, Kochia scoparia", "parameters": "key: % effect: 0 = no effect, 100 = full effect vs untreated", "conditions": "group (B) compound alone, 20 g of AS/ha", "text": "(§1) The 1:1 mixture of the two soil types was used specifically for cultivating small-seeded dicotyledonous weed since the standard field soil on its own tends to silt up, which may have an adverse effect on the emergence of small-seeded weeds. The resistances mentioned in the tables were confirmed beforehand in standard monitoring experiments. Nevertheless, the origins examined may have additional, hitherto unconfirmed resistances to various mechanisms of action.\n(§2) The pots were then cultivated in a greenhouse (12-16 h light, temperature day 20-22° C., night 15-18° C.) until the time of application. The pots were treated at various BBCH stages of the seeds/plants on a laboratory track sprayer with spray liquors comprising the compositions according to the invention, mixtures of the prior art or the individual components. Application of the active compounds or active compound combinations and wetting agents formulated as WG, WP, EC or otherwise was carried out at the appropriate growth stages of the plants. The amount of water used for spray application was 100-600 l/ha. After the treatment, the plants were returned to the greenhouses and fertilized and watered as required. The pots were cultivated in a greenhouse (12-16 h light, temperature day 20-22° C., night 15-18° C.).\n(§3) 3 weeks after the application, the foliar effect was evaluated on a scale of 0-100%:\n(§4) 0%=no noticeable effect compared to untreated plants\n(§5) 100%=full effect compared to untreated plants\n(§6) The following abbreviations were used: • BBCH the BBCH code provides information about the morphological development stage of a plant. Officially, the abbreviation denotes the Biologische Bundesanstalt, Bundessortenamt and CHemische Industrie [Federal Biological Institute for Agriculture and Forestry, Federal Office for Crop Plant Varieties, Chemical Industry]. The range of BBCH 00-10 denotes the germination stages of the seeds until surface penetration. The range of BBCH 11-25 denotes the leaf development stages until stocking (corresponds to the number of tillers or side-shoots). • PE pre-emergence soil application; BBCH of the seeds/plants 00-10 • PO post-emergence application on the green parts of the plants; BBCH of the plants 11-25 • IU soil loamy silt—standard field soil • l/ha liters per hectare • S sensitive—the weed populations are sensitive to the active compounds tested • TSR target-site resistance. The weed populations comprise biotypes having a site-of-action-specific resistance, i.e. the binding site at the site of action is modified as a result of natural mutations in the gene sequence so that the active compounds are no longer able to bind, or bind in an unsatisfactory manner, and are therefore no longer able to act. • NTR non-target-site herbicide resistance; this is differentiated, inter alia, into EMR (Enhanced Metabolic Resistance) (the weed populations comprise biotypes having metabolic resistance, i.e. the plants are capable of metabolizing the active compounds more quickly via enzyme complexes, i.e. the active compounds are degraded more quickly in the plant), into reduced penetration into the plant, reduced translocation in the plant, accelerated excretion. […]"}, "[2]": {"tested_on": "TTTTT (all resistant and sensitive biotypes)", "test": "Greenhouse test, PO application, mean over all resistant and sensitive biotypes", "assay_type": "in vivo", "conditions": "(A) 50, (B) 20, mixture 50 + 20 g of AS/ha", "text": "as §1, §2, §3, §4, §5, §6"}, "[3]": {"tested_on": "ALOMY", "test": "Greenhouse test, post-emergence (PO) application, foliar effect", "assay_type": "in vivo, Alopecurus myosuroides", "conditions": "ALOMY sensitive, (A) 50, (B) 20, mixture 50 + 20 g of AS/ha, 3 weeks after application", "text": "as §1, §2, §3, §4, §5, §6"}, "[4]": {"tested_on": "BIDSU", "test": "Greenhouse test, pre-emergence (PE) soil application", "assay_type": "in vivo, Bidens subalternans", "conditions": "group (B) compound alone, 20 g of AS/ha", "text": "as §1, §2, §3, §4, §5, §6"}, "[5]": {"tested_on": "LOLSS", "test": "Greenhouse test, post-emergence (PO) application, foliar effect", "assay_type": "in vivo, Lolium spp.", "conditions": "(A) 50, (B) 20, mixture 50 + 20 g of AS/ha, 3 weeks after application", "text": "as §1, §2, §3, §4, §5, §6"}, "[6]": {"tested_on": "ERIBO", "test": "Greenhouse test, pre-emergence (PE) soil application", "assay_type": "in vivo, Erigeron bonariensis", "parameters": "key: % effect: 0 = no effect, 100 = full effect vs untreated", "conditions": "group (B) compound alone, 20 g of AS/ha", "text": "as §1, §2, §3, §4, §5, §6"}, "[7]": {"tested_on": "ERICA", "test": "Greenhouse test, post-emergence (PO) application, foliar effect", "assay_type": "in vivo, Erigeron canadensis", "conditions": "(A) 50, (B) 20, mixture 50 + 20 g of AS/ha, 3 weeks after application", "text": "as §1, §2, §3, §4, §5, §6"}, "[8]": {"tested_on": "EPHHL", "test": "Greenhouse test, post-emergence (PO) application, foliar effect", "assay_type": "in vivo, Euphorbia heterophylla", "conditions": "(A) 50, (B) 20, mixture 50 + 20 g of AS/ha, 3 weeks after application", "text": "as §1, §2, §3, §4, §5, §6"}, "[9]": {"tested_on": "BRODI", "test": "Greenhouse test, post-emergence (PO) application, foliar effect", "assay_type": "in vivo, Bromus diformis", "conditions": "(A) 50, (B) 20, mixture 50 + 20 g of AS/ha, 3 weeks after application", "text": "as §1, §2, §3, §4, §5, §6"}, "[10]": {"tested_on": "ERIBO", "test": "Greenhouse test, post-emergence (PO) application, foliar effect", "assay_type": "in vivo, Erigeron bonariensis", "conditions": "(A) 50, (B) 20, mixture 50 + 20 g of AS/ha, 3 weeks after application", "text": "as §1, §2, §3, §4, §5, §6"}, "[11]": {"tested_on": "KCHSC", "test": "Greenhouse test, post-emergence (PO) application, foliar effect", "assay_type": "in vivo, Kochia scoparia", "conditions": "(A) 50, (B) 20, mixture 50 + 20 g of AS/ha, 3 weeks after application", "text": "as §1, §2, §3, §4, §5, §6"}, "[12]": {"tested_on": "AMATA", "test": "Greenhouse test, post-emergence (PO) application, foliar effect", "assay_type": "in vivo, Amaranthus rudis", "conditions": "(A) 50, (B) 20, mixture 50 + 20 g of AS/ha, 3 weeks after application", "text": "as §1, §2, §3, §4, §5, §6"}, "[13]": {"tested_on": "APESV", "test": "Greenhouse test, post-emergence (PO) application, foliar effect", "assay_type": "in vivo, Apera spica-venti", "conditions": "(A) 50, (B) 20, mixture 50 + 20 g of AS/ha, 3 weeks after application", "text": "as §1, §2, §3, §4, §5, §6"}, "[14]": {"tested_on": "CHEAL", "test": "Greenhouse test, pre-emergence (PE) soil application", "assay_type": "in vivo, Chenopodium album", "parameters": "key: % effect: 0 = no effect, 100 = full effect vs untreated", "conditions": "group (B) compound alone, 20 g of AS/ha", "text": "as §1, §2, §3, §4, §5, §6"}, "[15]": {"tested_on": "AMAPA", "test": "Greenhouse test, post-emergence (PO) application, foliar effect", "assay_type": "in vivo, Amaranthus palmeri", "conditions": "AMAPA resistant - group B (TSR), C1 (TSR) and G (NTR), (A) 50, (B) 20, mixture 50 + 20 g of AS/ha, 3 weeks after application", "text": "as §1, §2, §3, §4, §5, §6"}}}
{"compound": "CCS(=O)(=O)c1cccnc1S(=O)(=O)NC(=O)Nc1nc(OC)cc(OC)n1", "note": "[(B3), rimsulfuron]", "values": [{"measurement": "effect on KCHSC resistant - group B (TSR)", "setting": "[1]", "result": 20}, {"measurement": "effect on KCHSC sensitive", "setting": "[1]", "result": 80}, {"measurement": "TTTTT resistant mean (effect)", "setting": "[2]; mean of resistant biotypes (n = 17 or n = 15)", "result": 46, "unit": "%"}, {"measurement": "TTTTT sensitive mean (effect)", "setting": "[2]; mean of sensitive biotypes (n = 11)", "result": 88, "unit": "%"}, {"measurement": "foliar effect", "setting": "[3]", "result": 100, "unit": "%"}, {"measurement": "effect on BIDSU sensitive", "setting": "[4]", "result": 80}, {"measurement": "foliar effect", "setting": "[5]; LOLSS resistant - group G (NTR)", "result": 60, "unit": "%"}, {"measurement": "foliar effect", "setting": "[5]; LOLSS resistant group A (TSR, NTR), B (NTR) and C2 (NA)", "result": 60, "unit": "%"}, {"measurement": "foliar effect", "setting": "[5]; LOLSS resistant group A (TSR, NTR), B (TSR, NTR) and C2 (NA)", "result": 15, "unit": "%"}, {"measurement": "foliar effect", "setting": "[5]; LOLSS sensitive", "result": 95, "unit": "%"}, {"measurement": "effect on ERIBO resistant - group B (NA) and G (NTR)", "setting": "[6]", "result": 0}, {"measurement": "effect on ERIBO sensitive", "setting": "[6]", "result": 70}, {"measurement": "foliar effect", "setting": "[7]; ERICA resistant - group B (NA) and G (NTR)", "result": 60, "unit": "%"}, {"measurement": "foliar effect", "setting": "[7]; ERICA sensitive", "result": 90, "unit": "%"}, {"measurement": "foliar effect", "setting": "[8]; EPHHL resistant - group B (TSR) and G (NTR)", "result": 50, "unit": "%"}, {"measurement": "foliar effect", "setting": "[8]; EPHHL resistant - group B (TSR)", "result": 60, "unit": "%"}, {"measurement": "foliar effect", "setting": "[8]; EPHHL sensitive", "result": 80, "unit": "%"}, {"measurement": "foliar effect", "setting": "[9]; BRODI resistant - group A (TSR), B (NTR) and G (NTR)", "result": 75, "unit": "%"}, {"measurement": "foliar effect", "setting": "[9]; BRODI sensitive", "result": 100, "unit": "%"}, {"measurement": "foliar effect", "setting": "[10]; ERIBO resistant - group B (NA) and G (NTR)", "result": 60, "unit": "%"}, {"measurement": "foliar effect", "setting": "[10]; ERIBO sensitive", "result": 90, "unit": "%"}, {"measurement": "foliar effect", "setting": "[11]; KCHSC resistant - group B (TSR)", "result": 0, "unit": "%"}, {"measurement": "foliar effect", "setting": "[11]; KCHSC sensitive", "result": 90, "unit": "%"}, {"measurement": "foliar effect", "setting": "[12]; AMATA resistant - group B (TSR), C1 (TSR)", "result": 90, "unit": "%"}, {"measurement": "foliar effect", "setting": "[12]; AMATA sensitive", "result": 70, "unit": "%"}, {"measurement": "foliar effect", "setting": "[13]; APESV resistant - group B (TSR, NTR) and K1/3 (NA)", "result": 20, "unit": "%"}, {"measurement": "foliar effect", "setting": "[13]; APESV sensitive", "result": 100, "unit": "%"}, {"measurement": "effect on CHEAL resistant - group B (TSR), C1 (NA) and G (NTR)", "setting": "[14]", "result": 45}, {"measurement": "effect on CHEAL sensitive", "setting": "[14]", "result": 85}, {"measurement": "foliar effect", "setting": "[15]", "result": 70, "unit": "%"}]}
